{"source": "patent US10751335B2", "about": "(priority 2016, dated 2020)", "key": {"[1]": {"molecular_target": "human MOR (Homo sapiens (Human), UniProt P35372)"}, "[2]": {"tested_on": "mice", "details": "mouse, in vivo"}}}
{"smiles": "COc1ccsc1CNCC[C@@]1(c2ccccn2)CCOC2(CCCC2)C1", "note": "[TRV-130]", "values": [{"measurement": "G/βarr2 bias factor", "setting": "[1]", "result": 3.0}]}
{"smiles": "CN1CC[C@]23c4c5ccc(O)c4O[C@H]2[C@@H](O)C=C[C@H]3[C@H]1C5", "note": "[morphine]", "values": [{"measurement": "constipation following acute administration", "setting": "[2]", "result": "induced constipation"}]}
